Patent US11707539B2, “FAP-targeted radiopharmaceuticals and imaging agents, and uses related thereto” (Trustees of Tufts College, priority 2020, dated 2023)
Where a SMILES comes first, the peptide text is derived from it.

Assays:
[1] = Radiochemical purity by HPLC on storage at room temperature; format: physicochemical; conditions: three days at room temperature
Experimental: The labeling efficiency was analyzed by instant thin layer chromatography (iTLC) and was typically >98%. For iTLC analysis, 1 μL of diluted labeling solution was applied to a strip of iTLC-SA chromatography paper (Agilent P/N A120B12, 114×2.5 mm) and developed in 0.1M citrate buffer (8 cm solvent migration) to assess free ^177Lu (Rf >0.5) and [^177Lu]-6555 (Rf ˜0). The iTLC strips were analyzed using an Eckert & Ziegler AR-2000 Radio-TLC Imaging Scanner. The radiochemical purity was analyzed by high performance chromatography (HPLC) and was typically >90%. Briefly, the product was analyzed using a Phenomenex Luna 3.0 μm C18(2), 100A, 150 mm×4.6 mm column. Eluent A: 50 mM ammonium acetate in water, eluent B: acetonitrile. Gradient: 2% B from 0-5 min; 2% to 26% B from 5-20 min; 26% to 98% B from 20-25 min; 98% to 2% B from 25-26 min; 2% B from 26-30 min. Flow rate: 1.0 mL/min, Radio-HPLC detector: NaI (Eckert & Zeigler FC-1000), UV: 215 nm. The radiochemical purity remained >90% for three days at room temperature.
The above depicted radiopharmaceutical [^177Lu]-6952 can be prepared as described in Example 19 using the radiochemical precursor 6952 (Example 14 above). The labeling efficiency was analyzed by instant thin layer chromatography (iTLC) and was typically >98%. […] The iTLC strips were analyzed using an Eckert & Ziegler AR-2000 Radio-TLC Imaging Scanner. The radiochemical purity was analyzed by high performance chromatography (HPLC) and was typically >90%. Briefly, the product was analyzed using a Phenomenex Luna 3.0 m C18(2), 100A, 150 mm×4.6 mm column. […]
The labeling efficiency was analyzed by instant thin layer chromatography (iTLC) and was typically >95%. […] The iTLC strips were analyzed using an Eckert & Ziegler AR-2000 Radio-TLC Imaging Scanner. The radiochemical purity was analyzed by high performance chromatography (HPLC) and was typically >95%. Briefly, the product was analyzed using a Phenomenex Luna 3.0 m C18(2), 100Å, 150 mm×4.6 mm column. […]
The labeling efficiency was analyzed by instant thin layer chromatography (iTLC) and was typically >95%. […]

[2] = tested on: HEK-mFAP tumor xenografts; test: In vivo biodistribution study of [177Lu]-6522, gamma counting; conditions: for Mean (% ID/g): i.v.
[3] = tested on: HEK-mFAP tumor xenografts; test: Efficacy and survival study, single injection; format: in vivo, mouse; conditions: single IV injection
Experimental: The aim of the study was to assess the therapeutic efficacy of a single injection of ^177Lu-PNT2004 ([^177Lu]-6522) by evaluating tumor growth delay and median survival. ^177Lu-PNT2004 ([^177Lu]-6522) was provided in 3 concentrations, ready for injection (80 μL/mouse), and the injected dose was determined using a well counter (Capintec calibration) #430x10.
A total of 30 HEK-mFAP tumor-bearing mice were used for the study.
Mouse health checks were performed throughout the study on a weekly basis including body weight measurements. Tumor growth was monitored weekly with caliper measurements (tumor volume=length×width^2×0.5). Study endpoints include tumor size >2 cm in any dimension, tumor ulceration, mouse is moribund, and >15% body weight lost from the last measurement. Mice were housed 5 to a cage with ad libitum access to food and water in 20° C. ambient temperature, 40%-50% humidity, and 12-hour light/12-hour dark cycle.
The mice were randomized into 5 groups, n=6 mice per group. The treatment compositions (1 through 5 above) were injected IV through the tail vein using a catheter (mounted with a 30 Ga needle). Injected doses were determined using a well counter (Capintec calibration). Tumor growth was monitored weekly with caliper measurements, and the mice were followed for survival.

C[C@@H](NC(=O)[C@H]1CC[C@H](CNC(=O)CN2CCN3CCN4CCN(CC2)CC(=O)[O][Lu]([O]C(=O)C3)[O]C(=O)C4)CC1)C(=O)N1CCC[C@H]1B(O)O [[^177Lu]-6952]
radiochemical purity remained [1]: > 90%

C[C@@H](NC(=O)c1ccc(CNC(=O)CN2CCN3CCN4CCN(CC2)CC(=O)[O][Lu]([O]C(=O)C3)[O]C(=O)C4)cc1)C(=O)N1CCC[C@H]1B(O)O [[^177Lu]-6555]
radiochemical purity remained [1]: > 90%

CC(C)[C@H](NC(=O)CNC(=O)CNC(=O)CN1CCN2CCN3CCN(CC1)CC(=O)[O][Lu]([O]C(=O)C2)[O]C(=O)C3)C(=O)N[C@H](C)C(=O)N1CCC[C@H]1B(O)O [[^177Lu]-6522] (HELM PEPTIDE1{[O=C1CN2CCN3CCN(CC(=O)[*:2])CCN(CC2)CC(=O)[O][Lu]([O]1)[O]C(=O)C3].G.G.V.[dA].[OB(O)[C@@H]1CCCN1[*:1]]}$$$$V2.0)
Mean (% ID/g) ([2]; Blood, 4 h p.i.): 0.3063 % ID/g
Mean (% ID/g) ([2]; Blood, 24 h p.i.): 0.0085 % ID/g
Mean (% ID/g) ([2]; Blood, 48 h p.i.): 0.0029 % ID/g
Mean (% ID/g) ([2]; Blood, 168 h p.i.): 0.0015 % ID/g
Mean (% ID/g) ([2]; Bone, 4 h p.i.): 1.8037 % ID/g
Mean (% ID/g) ([2]; Bone, 24 h p.i.): 0.2658 % ID/g
Mean (% ID/g) ([2]; Bone, 48 h p.i.): 0.4106 % ID/g
Mean (% ID/g) ([2]; Bone, 168 h p.i.): 0.3959 % ID/g
Mean (% ID/g) ([2]; Brain, 4 h p.i.): 0.0281 % ID/g
Mean (% ID/g) ([2]; Brain, 24 h p.i.): 0.0036 % ID/g
Mean (% ID/g) ([2]; Brain, 48 h p.i.): 0.0033 % ID/g
Mean (% ID/g) ([2]; Brain, 168 h p.i.): 0.0020 % ID/g
Mean (% ID/g) ([2]; Heart, 4 h p.i.): 0.1528 % ID/g
Mean (% ID/g) ([2]; Heart, 24 h p.i.): 0.0332 % ID/g
Mean (% ID/g) ([2]; Heart, 48 h p.i.): 0.0311 % ID/g
Mean (% ID/g) ([2]; Heart, 168 h p.i.): 0.0256 % ID/g
Mean (% ID/g) ([2]; Kidneys, 4 h p.i.): 2.3525 % ID/g
Mean (% ID/g) ([2]; Kidneys, 4 h p.i., listed as Compound #2): 2.35±0.51 % ID/g
Mean (% ID/g) ([2]; Kidneys, 24 h p.i.): 0.9585 % ID/g
Mean (% ID/g) ([2]; Kidneys, 48 h p.i.): 0.5318 % ID/g
Mean (% ID/g) ([2]; Kidneys, 168 h (day 7) p.i.): 0.1670 % ID/g
Mean (% ID/g) ([2]; Kidneys, 168 h (day 7) p.i., listed as Compound #2): 0.17±0.02 % ID/g
Mean (% ID/g) ([2]; Liver, 4 h p.i.): 0.3774 % ID/g
Mean (% ID/g) ([2]; Liver, 24 h p.i.): 0.1585 % ID/g
Mean (% ID/g) ([2]; Liver, 48 h p.i.): 0.1237 % ID/g
Mean (% ID/g) ([2]; Liver, 168 h p.i.): 0.0725 % ID/g
Mean (% ID/g) ([2]; Lung, 4 h p.i.): 0.3331 % ID/g
Mean (% ID/g) ([2]; Lung, 24 h p.i.): 0.0306 % ID/g
Mean (% ID/g) ([2]; Lung, 48 h p.i.): 0.0312 % ID/g
Mean (% ID/g) ([2]; Lung, 168 h p.i.): 0.0257 % ID/g
Mean (% ID/g) ([2]; Muscle, 4 h p.i.): 0.4649 % ID/g
Mean (% ID/g) ([2]; Muscle, 24 h p.i.): 0.0315 % ID/g
Mean (% ID/g) ([2]; Muscle, 48 h p.i.): 0.0518 % ID/g
Mean (% ID/g) ([2]; Muscle, 168 h p.i.): 0.0604 % ID/g
Mean (% ID/g) ([2]; Pancreas, 4 h p.i.): 0.2167 % ID/g
Mean (% ID/g) ([2]; Pancreas, 24 h p.i.): 0.0347 % ID/g
Mean (% ID/g) ([2]; Pancreas, 48 h p.i.): 0.0275 % ID/g
Mean (% ID/g) ([2]; Pancreas, 168 h p.i.): 0.0197 % ID/g
Mean (% ID/g) ([2]; Skin, 4 h p.i.): 0.9769 % ID/g
Mean (% ID/g) ([2]; Skin, 24 h p.i.): 0.1158 % ID/g
Mean (% ID/g) ([2]; Skin, 48 h p.i.): 0.0906 % ID/g
Mean (% ID/g) ([2]; Skin, 168 h p.i.): 0.0837 % ID/g
Mean (% ID/g) ([2]; Small intestine, 4 h p.i.): 0.2091 % ID/g
Mean (% ID/g) ([2]; Small intestine, 24 h p.i.): 0.0580 % ID/g
Mean (% ID/g) ([2]; Small intestine, 48 h p.i.): 0.0499 % ID/g
Mean (% ID/g) ([2]; Small intestine, 168 h p.i.): 0.0277 % ID/g
Mean (% ID/g) ([2]; Spleen, 4 h p.i.): 0.2587 % ID/g
Mean (% ID/g) ([2]; Spleen, 24 h p.i.): 0.1418 % ID/g
Mean (% ID/g) ([2]; Spleen, 48 h p.i.): 0.1340 % ID/g
Mean (% ID/g) ([2]; Spleen, 168 h p.i.): 0.1437 % ID/g
Mean (% ID/g) ([2]; Stomach, 4 h p.i.): 0.1706 % ID/g
Mean (% ID/g) ([2]; Stomach, 24 h p.i.): 0.0528 % ID/g
Mean (% ID/g) ([2]; Stomach, 48 h p.i.): 0.0331 % ID/g
Mean (% ID/g) ([2]; Stomach, 168 h p.i.): 0.0210 % ID/g
Mean (% ID/g) ([2]; Tumor, 4 h p.i.): 33.0435 % ID/g
Mean (% ID/g) ([2]; Tumor, 4 h p.i., listed as Compound #2): 33.04±5.29 % ID/g
Mean (% ID/g) ([2]; Tumor, 24 h p.i.): 12.9944 % ID/g
Mean (% ID/g) ([2]; Tumor, 48 h p.i.): 7.6749 % ID/g
Mean (% ID/g) ([2]; Tumor, 168 h p.i.): 3.9910 % ID/g
localization in tumor and normal tissue uptake ([2]; up to 168 h p.i.): high localization in tumor xenografts and low normal tissue uptake
survival benefit ([3]; 15 MBq): did not translate in a survival benefit
tumor growth delay ([3]; 15 MBq): tumor growth delay was observed
survival benefit ([3]; 30 MBq): did not translate in a survival benefit
tumor growth delay ([3]; 30 MBq): tumor growth delay was observed
survival benefit compared to the vehicle or precursor group ([3]; 60 MBq): statically significant survival benefit
